“And” between values parts separate entries of the source, which are not always exact repeats. Identical values can stand only once. Like-named read-outs stand apart in the source and are kept apart here.
Assays:
[1] = cited from earlier work
[2] = Lewis basicity LB from equilibrium constants (photometric titrations) with benzhydrylium ions as reference Lewis acids; assay type: physicochemical; set-up: key: Mayr Lewis basicity scale; LB from K and reference LA via Eq. (3); conditions: in dichloromethane, 20 °C
Procedure: (a) Lewis basicity. Previously, the Mayr group established a series of benzhydrylium ions as C‐centered Lewis acid references to construct a Lewis basicity scale in dichloromethane. Substituting experimentally determined equilibrium constants K (at 20 °C) and reported Lewis acidities LA for the benzhydrylium ions (Figure 7) in Equation (3) enables one to calculate the Lewis basicity (LB) of a Lewis base.^[ [121], [127] ^] (3) lgK(20^∘C)=LA+LB
The reversibility of the formation of adducts 19 (Equation (4)), which was also apparent in the kinetics by significant positive intercepts in several of the k obs versus [IChU] plots (Supporting Information), provided the opportunity to probe the thermodynamics of the C‐N bond‐forming reactions of IChUs with benzhydrylium ions as the reference Lewis acids in more detail.^[ [95] ^] (4) IChU+Ar2CH^+(18)⇌Ar2CH-IChU^+(19)
By assuming the validity of the Beer–Lambert law for dilute solutions, equilibrium constants K (L mol^−1) were determined in photometric titrations according to Equation (5) from the initial absorbance (A 0) of the benzhydrylium ions 18 and the absorbance at equilibrium (A, Equation 5), that is, after addition of a certain amount of an IChU.^[ [109], [110], [111], [112], [113], [114], [115], [119] ^] (5) K=[19]/[18]IChU=A0−A/AIChU

[3] = Mayr nucleophilicity parameters N and sN (benzhydrylium methodology, Mayr-Patz equation); assay type: physicochemical; conditions: dichloromethane, 20 °C
Text: (1) Mayr-Patz Equation: lgk20^∘C=sN(N+E)
The MPE is a linear‐free‐energy relationship that characterizes electrophiles by the electrophilicity parameter E and nucleophiles by the solvent‐dependent parameters N (nucleophilicity) and s N (sensitivity toward changes in the electrophile reactivity). By using the MPE (Equation (1)), the construction of comprehensive nucleophilicity and electrophilicity scales becomes possible, which facilitate the comparison of various classes of Lewis base organocatalysts.^[ [110], [111], [112], [113], [114], [115], [116], [117], [118], [119], [120] ^]
In order to systematically investigate the influence of the chalcogen atom on the nucleophilicity of DHPB‐derived IChUs (Ch = O, S, Se, and Te), we utilized Mayr's benzhydrylium methodology.^[ [107] ^]
Figure 4 illustrates the linear correlations of the second‐order rate constants (lg k 2) with the electrophilicities E of Ar2CH^+ (18), which makes it possible to determine the Mayr nucleophilicity parameters N (and s N) for the DHPB‐derived IChUs IU3, ITU3, ISeU3, and ITeU3. […]
Figure 4 Linear correlations of second‐order rate constants (lg k 2) for the reactions of IU3, ITU3, ISeU3, and ITeU3 with Ar2CH^+ 18 (in dichloromethane at 20 °C) with the electrophilicities E of 18. The slopes of the linear correlations equal the nucleophile‐dependent sensitivity parameter s N. Intercepts on the abscissa reflect the nucleophilicity parameter N (N = –E at lg k 2 = 0).

[4] = as above; assay type: physicochemical; conditions: 20 °C
[5] = dichloromethane, 20 °C; cited from earlier work
[6] = in acetonitrile, ref SI [25]-[30]

SMILES	Lewis basicity LB [2]	Nucleophile-specific sensitivity parameter sN [3]	Nucleophilicity parameter N [3]	also measured
O=C(O)c1ccc([N+](=O)[O-])cc1[N+](=O)[O-] [2,4-Dinitrobenzoic acid]				Literature pKa of indicators and acids ([1]; in DMSO, ref SI [31]-[36]): 6.5
CN(C)c1ccncc1 [4-(dimethylamino)pyridine]				Literature pKa of indicators and acids ([1]; in DMSO, ref SI [31]-[36]): 7.91; Literature pKa of indicators and acids [1, 6]: 17.95
Fc1ccc2c(c1)SC1=N[C@H](c3ccccc3)CN12 [F-ITU2, 7-F-BTM]	14.18	0.66	13.45 and 13.46	
c1ccc(C2CN3CC[Se]C3=N2)cc1 (centres unmarked) [ISeU1, SeTM]		0.60	15.26	
c1ccc([C@@H]2CN3C(=N2)[Se]c2ccccc23)cc1 [ISeU2, SeBTM]	15.23	0.63	14.27	
c1ccc([C@@H]2CCN3C(=N2)[Se]c2ccccc23)cc1 [ISeU4, SeHBTM]	14.03	0.67	14.42	
CC(C)[C@@H]1CN2C(=N[C@@H]1c1ccccc1)[Se]c1ccccc12 [ISeU5, SeHyperBTM]	14.75	0.58	16.11	Nucleophile-specific sensitivity parameter sN ([4]; THF): 0.77; Nucleophilicity parameter N ([4]; THF): 14.19; Nucleophile-specific sensitivity parameter sN ([4]; acetonitrile): 0.57; Nucleophilicity parameter N ([4]; acetonitrile): 15.84
c1ccc(C2CN3CCSC3=N2)cc1 (centres unmarked) [ITU1, tetramisole, reference compound]	15.50	0.68	13.86	
c1ccc([C@@H]2CN3C(=N2)Sc2ccccc23)cc1 [ITU2, benzotetramisole]	14.88	0.73	13.06	
c1ccc([C@@H]2CCN3C(=N2)Sc2ccccc23)cc1 [ITU4, HBTM]	13.43			Nucleophilicity parameter N [5]: 13.45
CC(C)[C@@H]1CN2C(=N[C@@H]1c1ccccc1)Sc1ccccc12 [ITU5, HyperBTM]	14.12			Nucleophilicity parameter N [5]: 14.96
c1ccc([C@@H]2CN3C(=N2)[Te]c2ccccc23)cc1 [ITeU2, TeBTM]	17.09	0.66	14.62	
CC(C)[C@@H]1CN2C(=N[C@@H]1c1ccccc1)Oc1ccccc12 [IU5, OHyperBTM]	12.42	0.73	13.01	
COc1ccc2c(c1)SC1=N[C@H](c3ccccc3)CN12 [MeO-ITU2, 7-MeO-BTM]	15.22	0.75	13.15	
CC1(C)OC(=O)CC(=O)O1 [Meldrum’s acid]				Literature pKa of indicators and acids ([1]; in DMSO, ref SI [31]-[36]): 7.3
CN(C)c1cccc2cccc(N(C)C)c12 [Proton Sponge]				Literature pKa of indicators and acids ([1]; in DMSO, ref SI [31]-[36]): 7.47
C1CCNC1 [Pyrrolidine]				Literature pKa of indicators and acids ([1]; in DMSO, ref SI [31]-[36]): 11.06; Literature pKa of indicators and acids [1, 6]: 19.56

— PMC12643354, “From Oxygen to Tellurium: The Impact of the Chalcogen on Nucleophilicities and Basicities of Isochalcogenourea Catalysts” (Angewandte Chemie (International Ed. in English), 2025)
